Test results taken from PubChem BioAssay (NCI).
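Five compound concentrations were applied to cells in 96-well plates for 48 hours; endpoints were derived by simple linear interpolation of the resulting dose-response curve. Abbreviation: GI50, concentration required for 50% inhibition of growth. Definition used: TGI = concentration required for complete inhibition of growth.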

What was measured:
Experiment in all cases: inhibition of tumour cell growth, NCI panel, 48 h
ACHN renal = tested on: ACHN renal
HOP-92 NSCLC = tested on: HOP-92 NSCLC
A498 renal = tested on: A498 renal
RXF 393 renal = tested on: RXF 393 renal
SW-620 colon = tested on: SW-620 colon
COLO 205 colon = tested on: COLO 205 colon
SNB-19 CNS = tested on: SNB-19 CNS
MDA-MB-231 breast = tested on: MDA-MB-231 breast
CAKI-1 renal = tested on: CAKI-1 renal
HS 578T breast = tested on: HS 578T breast
IGROV1 ovarian = tested on: IGROV1 ovarian
SR leukemia = tested on: SR leukemia
OVCAR-3 ovarian = tested on: OVCAR-3 ovarian
SK-OV-3 ovarian = tested on: SK-OV-3 ovarian
SK-MEL-5 melanoma = tested on: SK-MEL-5 melanoma
TK-10 renal = tested on: TK-10 renal
786-0 renal = tested on: 786-0 renal
SK-MEL-2 melanoma = tested on: SK-MEL-2 melanoma
OVCAR-4 ovarian = tested on: OVCAR-4 ovarian
UO-31 renal = tested on: UO-31 renal
SF-295 CNS = tested on: SF-295 CNS
SK-MEL-28 melanoma = tested on: SK-MEL-28 melanoma
NCI-H23 lung = tested on: NCI-H23 lung
MCF7 breast = tested on: MCF7 breast
MOLT-4 leukemia = tested on: MOLT-4 leukemia
HT29 colon = tested on: HT29 colon
UACC-62 melanoma = tested on: UACC-62 melanoma
NCI-H522 lung = tested on: NCI-H522 lung
HCT-15 colon = tested on: HCT-15 colon
MDA-MB-435 = tested on: MDA-MB-435
DU-145 prostate = tested on: DU-145 prostate
MALME-3M melanoma = tested on: MALME-3M melanoma
U251 CNS = tested on: U251 CNS
HOP-62 NSCLC = tested on: HOP-62 NSCLC
OVCAR-8 ovarian = tested on: OVCAR-8 ovarian
A549 NSCLC = tested on: A549 NSCLC
RPMI-8226 leukemia = tested on: RPMI-8226 leukemia
UACC-257 melanoma = tested on: UACC-257 melanoma
NCI-H460 lung = tested on: NCI-H460 lung
SF-268 CNS = tested on: SF-268 CNS
EKVX NSCLC = tested on: EKVX NSCLC
NCI-H226 lung = tested on: NCI-H226 lung
BT-549 breast = tested on: BT-549 breast
OVCAR-5 ovarian = tested on: OVCAR-5 ovarian
KM12 colon = tested on: KM12 colon
SN12C renal = tested on: SN12C renal
PC-3 prostate = tested on: PC-3 prostate
M14 melanoma = tested on: M14 melanoma
HCT-116 colon = tested on: HCT-116 colon
T-47D breast = tested on: T-47D breast
HCC-2998 colon = tested on: HCC-2998 colon
SNB-75 CNS = tested on: SNB-75 CNS
NCI/ADR-RES ovarian = tested on: NCI/ADR-RES ovarian
CCRF-CEM leukemia = tested on: CCRF-CEM leukemia
SF-539 CNS = tested on: SF-539 CNS
LOX IMVI melanoma = tested on: LOX IMVI melanoma
K-562 leukemia = tested on: K-562 leukemia
HL-60(TB) leukemia = tested on: HL-60(TB) leukemia

## COc1cc(OC)c(C(=O)/C=C/c2cccc(C#N)c2)c(OC)c1
ACHN renal
  GI50: 1.13 µM
  TGI: 4.47 µM
HOP-92 NSCLC
  GI50: 0.701 µM
  TGI: 3.26 µM
A498 renal
  GI50: 1.24 µM
  TGI: 3.3 µM
RXF 393 renal
  GI50: 0.797 µM
  TGI: 2.05 µM
SW-620 colon
  GI50: 1.46 µM
  TGI: 5.15 µM
COLO 205 colon
  GI50: 1.79 µM
  TGI: 6.04 µM
SNB-19 CNS
  GI50: 1.67 µM
  TGI: 6.61 µM
MDA-MB-231 breast
  GI50: 2 µM
  TGI: 8.08 µM
CAKI-1 renal
  GI50: 2.03 µM
  TGI: 7.16 µM
HS 578T breast
  GI50: 1.59 µM
  TGI: 44.9 µM
IGROV1 ovarian
  GI50: 1.55 µM
  TGI: 5.91 µM
SR leukemia
  GI50: 0.241 µM
  TGI: > 50 µM
OVCAR-3 ovarian
  GI50: 1.75 µM
  TGI: 6.74 µM
SK-OV-3 ovarian
  GI50: 1.82 µM
  TGI: > 50 µM
SK-MEL-5 melanoma
  GI50: 1.55 µM
  TGI: 6.16 µM
TK-10 renal
  GI50: 1.63 µM
  TGI: 5.52 µM
786-0 renal
  GI50: 1.31 µM
  TGI: 5.52 µM
SK-MEL-2 melanoma
  GI50: 1.49 µM
  TGI: 6.44 µM
OVCAR-4 ovarian
  GI50: 2.03 µM
  TGI: 10 µM
UO-31 renal
  GI50: 1.13 µM
  TGI: 4.86 µM
SF-295 CNS
  GI50: 1.31 µM
  TGI: 5.51 µM
SK-MEL-28 melanoma
  GI50: 1.58 µM
  TGI: 6.24 µM
NCI-H23 lung
  GI50: 1.21 µM
  TGI: 4.59 µM
MCF7 breast
  GI50: 1.33 µM
  TGI: 6.72 µM
MOLT-4 leukemia
  GI50: 1.13 µM
  TGI: > 50 µM
HT29 colon
  GI50: 1.69 µM
  TGI: 5.87 µM
UACC-62 melanoma
  GI50: 1.22 µM
  TGI: 4.92 µM
NCI-H522 lung
  GI50: 0.992 µM
  TGI: 2.94 µM
HCT-15 colon
  GI50: 0.853 µM
  TGI: 3.02 µM
MDA-MB-435
  GI50: 1.42 µM
  TGI: 6.38 µM
DU-145 prostate
  GI50: 1.47 µM
  TGI: 6.37 µM
MALME-3M melanoma
  GI50: 1.76 µM
  TGI: 8.13 µM
U251 CNS
  GI50: 1.53 µM
  TGI: 5.76 µM
HOP-62 NSCLC
  GI50: 1.33 µM
  TGI: 4.55 µM
OVCAR-8 ovarian
  GI50: 1.47 µM
  TGI: 6.51 µM
A549 NSCLC
  GI50: 1.43 µM
  TGI: 6.1 µM
RPMI-8226 leukemia
  GI50: 0.981 µM
  TGI: 4.31 µM
UACC-257 melanoma
  GI50: 2.1 µM
  TGI: 8.69 µM
NCI-H460 lung
  GI50: 1.1 µM
  TGI: 2.86 µM
SF-268 CNS
  GI50: 1.69 µM
  TGI: 7.9 µM
EKVX NSCLC
  GI50: 1.37 µM
  TGI: 5.32 µM
NCI-H226 lung
  GI50: 1.28 µM
  TGI: 4.56 µM
BT-549 breast
  GI50: 0.611 µM
  TGI: 2.5 µM
OVCAR-5 ovarian
  GI50: 2.26 µM
  TGI: 7.95 µM
KM12 colon
  GI50: 1.64 µM
  TGI: 5.97 µM
SN12C renal
  GI50: 1.5 µM
  TGI: 7.1 µM
PC-3 prostate
  GI50: 1.71 µM
  TGI: 8.26 µM
M14 melanoma
  GI50: 0.978 µM
  TGI: 4.68 µM
HCT-116 colon
  GI50: 0.414 µM
  TGI: 1.62 µM
T-47D breast
  GI50: 1.17 µM
  TGI: 5.53 µM
HCC-2998 colon
  GI50: 2.17 µM
  TGI: 7.34 µM
SNB-75 CNS
  GI50: 1.31 µM
  TGI: 5.62 µM
NCI/ADR-RES ovarian
  GI50: 1.44 µM
  TGI: 10.5 µM
CCRF-CEM leukemia
  GI50: 1.03 µM
  TGI: > 50 µM
SF-539 CNS
  GI50: 1.41 µM
  TGI: 4.12 µM
LOX IMVI melanoma
  GI50: 1.23 µM
  TGI: 5.18 µM
K-562 leukemia
  GI50: 0.384 µM
  TGI: > 50 µM

## c1ccc2[nH]c(-c3cc(-c4ccc5c(c4)OCO5)n[nH]3)nc2c1
ACHN renal
  GI50: 4.33 µM
  TGI: 19 µM
HL-60(TB) leukemia
  GI50: 2.27 µM
  TGI: 20.2 µM
A498 renal
  GI50: 1.7 µM
  TGI: 12.8 µM
RXF 393 renal
  GI50: 2.36 µM
  TGI: 12.1 µM
SW-620 colon
  GI50: 5.87 µM
  TGI: 21.4 µM
COLO 205 colon
  GI50: 4.78 µM
  TGI: 18.5 µM
SNB-19 CNS
  GI50: 5.92 µM
  TGI: 25.6 µM
MDA-MB-231 breast
  GI50: 4.12 µM
  TGI: 20.2 µM
CAKI-1 renal
  GI50: 2.74 µM
  TGI: 17.7 µM
HS 578T breast
  GI50: 3.8 µM
  TGI: 52.3 µM
IGROV1 ovarian
  GI50: 3.66 µM
  TGI: 15.9 µM
SR leukemia
  GI50: 3.37 µM
  TGI: 16.8 µM
OVCAR-3 ovarian
  GI50: 3.21 µM
  TGI: 14.6 µM
SK-OV-3 ovarian
  GI50: 4.98 µM
  TGI: 17.7 µM
SK-MEL-5 melanoma
  GI50: 1.53 µM
  TGI: 3.55 µM
TK-10 renal
  GI50: 10.9 µM
  TGI: 23.8 µM
786-0 renal
  GI50: 4.58 µM
  TGI: 17.4 µM
OVCAR-4 ovarian
  GI50: 2.16 µM
  TGI: 12 µM
UO-31 renal
  GI50: 3.98 µM
  TGI: 16.1 µM
SF-295 CNS
  GI50: 3.24 µM
  TGI: 14.6 µM
SK-MEL-28 melanoma
  GI50: 4.85 µM
  TGI: 18.5 µM
NCI-H23 lung
  GI50: 4.47 µM
  TGI: 19.3 µM
MCF7 breast
  GI50: 3.78 µM
  TGI: 18.3 µM
MOLT-4 leukemia
  GI50: 2.68 µM
  TGI: 20.9 µM
HT29 colon
  GI50: 3.66 µM
  TGI: 15 µM
UACC-62 melanoma
  GI50: 3.08 µM
  TGI: 14.7 µM
NCI-H522 lung
  GI50: 1.98 µM
  TGI: 10.3 µM
HCT-15 colon
  GI50: 3.86 µM
  TGI: 20.3 µM
MDA-MB-435
  GI50: 3.12 µM
  TGI: 15.6 µM
DU-145 prostate
  GI50: 7.27 µM
  TGI: 22 µM
MALME-3M melanoma
  GI50: 2.33 µM
  TGI: 13.2 µM
U251 CNS
  GI50: 2.37 µM
  TGI: 14.4 µM
HOP-62 NSCLC
  GI50: 8.46 µM
  TGI: 21.8 µM
OVCAR-8 ovarian
  GI50: 3.97 µM
  TGI: 18 µM
A549 NSCLC
  GI50: 4.23 µM
  TGI: 19.7 µM
RPMI-8226 leukemia
  GI50: 1.14 µM
  TGI: 7.16 µM
UACC-257 melanoma
  GI50: 6 µM
  TGI: 23.2 µM
NCI-H460 lung
  GI50: 4.57 µM
  TGI: 17.7 µM
SF-268 CNS
  GI50: 4.77 µM
  TGI: 22.4 µM
NCI-H226 lung
  GI50: 4.2 µM
  TGI: 21 µM
BT-549 breast
  GI50: 2.12 µM
  TGI: 13 µM
OVCAR-5 ovarian
  GI50: 14.9 µM
  TGI: 34.3 µM
KM12 colon
  GI50: 1.75 µM
  TGI: 13.2 µM
SN12C renal
  GI50: 3.73 µM
  TGI: 21.3 µM
PC-3 prostate
  GI50: 3.64 µM
  TGI: 17.7 µM
M14 melanoma
  GI50: 2.19 µM
  TGI: 16.7 µM
HCT-116 colon
  GI50: 6.36 µM
  TGI: 25.4 µM
T-47D breast
  GI50: 3.32 µM
  TGI: 16.2 µM
HCC-2998 colon
  GI50: 3.74 µM
  TGI: 14 µM
SNB-75 CNS
  GI50: 10.1 µM
  TGI: 23.7 µM
NCI/ADR-RES ovarian
  GI50: 4.08 µM
  TGI: 27.1 µM
CCRF-CEM leukemia
  GI50: 2.52 µM
  TGI: 22.4 µM
SF-539 CNS
  GI50: 2.71 µM
  TGI: 14.1 µM
K-562 leukemia
  GI50: 3.83 µM
  TGI: 22.1 µM
